Laboratory results: ChEMBL document CHEMBL1201862, “PubChem BioAssay data set” (2004)
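96-well plates; 48 h exposure; 5 concentrations. Endpoints by linear interpolation between flanking doses. Not reached: highest tested concentration assigned. GI50 = concentration required for 50% inhibition of growth.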 Active and inactive are the calls of the source. Cut-off read from the data, not from the text of the source: active = GI50 up to about 1.1 µM and inactive = higher.

Assays:
Test in all cases: NCI anticancer screen, dose series, 48 h
[1] = test system: 786-0
[2] = test system: BT-549
[3] = test system: DU-145
[4] = test system: EKVX
[5] = test system: HL-60
[6] = test system: HT-29
[7] = test system: MDA-MB-435
[8] = test system: MOLT-4
[9] = test system: Malme-3M
[10] = test system: PC-3
[11] = test system: RPMI-8226
[12] = test system: RXF 393
[13] = test system: SF-268
[14] = test system: SK-MEL-28
[15] = test system: SNB-75
[16] = test system: UACC-62
[17] = test system: UO-31
[18] = test system: NCI-H522
[19] = test system: OVCAR-5

Measured: GI50

O=C(c1cccs1)N(C(=O)N1CCCCC1)c1ccccc1
inactive: [1] > 100 µM | [2] > 100 µM | [3] > 100 µM | [4] 14.8 µM | [5] > 100 µM | [6] > 100 µM | [7] > 100 µM | [8] > 100 µM | [9] 2.25 µM | [10] 52.1 µM | [11] > 100 µM | [12] 35 µM | [13] > 100 µM | [14] > 100 µM | [15] 3.28 µM | [16] > 100 µM | [17] 62.8 µM

CN1C(NN)=NS(=O)(=O)c2ccccc21
inactive: [1] > 100 µM | [2] > 100 µM | [3] > 100 µM | [4] > 100 µM | [5] > 100 µM | [6] > 100 µM | [7] > 100 µM | [8] > 100 µM | [18] > 100 µM | [19] > 100 µM | [10] > 100 µM | [12] > 100 µM | [13] > 100 µM | [14] > 100 µM | [16] > 100 µM | [17] > 100 µM

O=C(CC(=O)N(C(=O)c1ccccc1)c1ccc(Cl)cc1)N/N=C\c1cc(/N=N/c2ccccc2Cl)ccc1O
inactive: [1] 38.1 µM | [2] > 100 µM | [3] > 100 µM | [4] 90.2 µM | [5] 12.7 µM | [6] > 100 µM | [7] > 100 µM | [8] 18.7 µM | [9] > 100 µM | [19] > 100 µM | [10] > 100 µM | [11] 68.2 µM | [12] 29.8 µM | [13] 47.1 µM | [14] > 100 µM | [15] 12.4 µM | [16] 70.5 µM | [17] 45.6 µM

CC(=O)N1N=C(c2ccccc2Nc2ccccc2C2=NN(C(C)=O)C(c3ccccc3)O2)OC1c1ccccc1 (stereo unspecified)
inactive: [1] > 100 µM | [2] 87.5 µM | [3] > 100 µM | [4] 45.4 µM | [6] 25.5 µM | [7] 14.7 µM | [8] 4.76 µM | [9] > 100 µM | [18] 36.1 µM | [19] > 100 µM | [10] 10.4 µM | [11] 25.3 µM | [12] 46.8 µM | [14] > 100 µM | [16] 35 µM | [17] 48.5 µM

COC(=O)C12C(=O)CC3CCC1C32C(=O)OC (stereo unspecified)
inactive: [1] > 100 µM | [2] > 100 µM | [3] > 100 µM | [4] > 100 µM | [6] > 100 µM | [7] > 100 µM | [8] > 100 µM | [9] > 100 µM | [18] > 100 µM | [19] > 100 µM | [10] > 100 µM | [11] > 100 µM | [12] > 100 µM | [13] > 100 µM | [14] > 100 µM | [15] > 100 µM | [16] > 100 µM | [17] > 100 µM

NC(CCC(=O)O)(CCC(=O)O)CCC(=O)O
inactive: [1] > 100 µM | [2] > 100 µM | [3] > 100 µM | [4] > 100 µM | [6] > 100 µM | [7] > 100 µM | [8] > 100 µM | [9] > 100 µM | [18] 11.5 µM | [19] > 100 µM | [10] > 100 µM | [11] > 100 µM | [12] > 100 µM | [13] > 100 µM | [15] > 100 µM | [16] > 100 µM | [17] > 100 µM

Nc1cc(N)c(/N=N/c2cccc3c(S(=O)(=O)O)cccc23)cc1/N=N/c1cc([N+](=O)[O-])ccc1O
inactive: [1] 42.1 µM | [2] 31.6 µM | [3] 30.3 µM | [4] > 100 µM | [6] 43.8 µM | [7] 35.6 µM | [8] 20.3 µM | [9] 17.3 µM | [18] 17.5 µM | [19] 23.3 µM | [10] 18.5 µM | [11] 35.6 µM | [12] 70.3 µM | [13] 6.62 µM | [15] 49.1 µM | [16] 22.3 µM | [17] 19 µM

COC(C/C=C\C=C\CC/C=C/CC(C)/C=C/C(=C\C(=O)O)CC(=O)O)/C(C)=C\C=C(/C)C(=O)O (stereo unspecified)
inactive: [2] > 100 µM | [3] > 100 µM | [4] 28.4 µM | [6] > 100 µM | [7] > 100 µM | [8] > 100 µM | [9] > 100 µM | [18] > 100 µM | [19] > 100 µM | [10] > 100 µM | [11] > 100 µM | [13] > 100 µM | [14] > 100 µM | [15] 58.3 µM | [16] > 100 µM | [17] > 100 µM

CC1(C)CC(=O)C2=C(C1)NC(=S)C(C#N)C2c1ccccc1 (stereo unspecified)
inactive: [1] > 100 µM | [2] > 100 µM | [3] > 100 µM | [4] > 100 µM | [5] > 100 µM | [6] > 100 µM | [7] > 100 µM | [9] > 100 µM | [18] > 100 µM | [19] > 100 µM | [10] > 100 µM | [12] > 100 µM | [13] > 100 µM | [14] > 100 µM | [15] > 100 µM | [16] > 100 µM | [17] > 100 µM

Cc1cc(S(=O)(=O)n2ccnc2O)c(SCCCN(C)C)cc1Cl
inactive: [1] > 100 µM | [2] > 100 µM | [3] > 100 µM | [4] > 100 µM | [6] > 100 µM | [7] > 100 µM | [8] > 100 µM | [9] > 100 µM | [18] > 100 µM | [19] > 100 µM | [10] > 100 µM | [12] > 100 µM | [13] > 100 µM | [14] > 100 µM | [16] > 100 µM | [17] > 100 µM

CC1OC(OC2C(CO)OC(O[C@H]3CC[C@@]4(C)C(=CC[C@H]5[C@@H]6C[C@@H]7O[C@](O)(CC[C@H](CO)COC8OC(CO)C(O)C(O)C8O)[C@@H](C)[C@@H]7[C@@]6(C)CC[C@@H]54)C3)C(OC3OC(C)C(O)C(O)C3O)C2O)C(O)C(O)C1O (stereo partly specified)
inactive: [1] > 100 µM | [2] > 100 µM | [3] > 100 µM | [4] > 100 µM | [6] > 100 µM | [7] > 100 µM | [8] > 100 µM | [9] > 100 µM | [18] > 100 µM | [19] > 100 µM | [10] > 100 µM | [11] > 100 µM | [12] > 100 µM | [13] > 100 µM | [14] > 100 µM | [15] > 100 µM | [16] > 100 µM | [17] > 100 µM
